Measured values as given in PMC9224473 (International Journal of Molecular Sciences, 2022).
≈ marks a conversion by molar mass, not a printed value.

Columns and labels:
E. coli ATCC 25922 = assay: MIC, broth microdilution, standard strain; format: cell-based, Escherichia coli; conditions: 35 °C; for MIC: Escherichia coli, ATCC25922, 19 h
[1] = test system: HCT116 (human colon cancer); assay: MTT cytotoxicity assay; format: cell-based; conditions: Homo sapiens, HCT-116, 72 h, mean SD
Experimental: (§1) The human cell lines SW480 (primary colon cancer), SW620 (lymph node metastatic colon cancer from the same patient as primary cancer cells), HCT116 (colon carcinoma), HepG2 (liver cancer), and HaCaT (immortalized keratinocytes) were obtained from the American Type Culture Collection (ATCC, Rockville, MD, USA). The SW480, SW620 and HCT116 cells were grown in MEM (ThermoSci, Waltham, MA, USA), HepG2 and HaCaT in DMEM High Glucose (Biowest SAS, Nuaillé, France) supplemented with 10% foetal bovine serum (FBS), HEPES (20 mM), and antibiotics (100 U mL^−1 of Penicillin and 100 μg mL^−1 of Streptomycin). The cells were incubated in a humidified incubator at 37 °C/5% CO2, until 80–90% confluence was reached.
(§2) The cell viability was assessed by using of MTT salt [3-(4,5-dimethylthiazol-2-yl)-2,5-diphenyltetrazolium bromide] converted by mitochondrial dehydrogenase, occurring in living cells. The cells were seeded in 96-well plates at a density of 1 × 10^4 cells per well and allowed to adhere for 24 h at 37 °C in a CO2 humidified incubator. […]. The untreated cells were used as the control.
(§3) After 72 h incubation, the medium was replaced with 200 µL per well of free-serum medium containing 0.5 mg mL^−1 MTT and incubated for 4 h at 37 °C in a CO2 humidified incubator. Subsequently, the medium was removed and dimethyl sulfoxide (DMSO) with isopropanol (1:1) was added to dissolve the formazan crystals. The optical density was measured using UVM 340 reader (ASYS Hitech GmbH, Eugendorf, Austria) at a wavelength of 570 nm. The experiments were repeated three times. The cell viability was calculated as the percent of MTT reduced in treated cells versus control cells (untreated cells). The number of viable cells cultured without tested compounds was assumed as 100%. A decreased relative MTT level indicates decreased cell viability. The IC50 values were estimated using CompuSyn version 1.0.

[2] = test system: HepG2 (human liver cancer); assay: MTT cytotoxicity assay; format: cell-based; conditions: Homo sapiens, HepG2, 72 h, mean SD
Experimental: as §1, §2, §3

[3] = test system: HaCaT (human immortal keratinocyte cell line); assay: MTT cytotoxicity assay; format: cell-based; conditions: Homo sapiens, HaCaT, 72 h, mean SD, read-out: IC50 HaCaT (normal cells)
Experimental: as §1, §2, §3

[4] = test system: SW480 (human primary colon cancer); assay: MTT cytotoxicity assay; format: cell-based; conditions: Homo sapiens, SW480, 72 h, mean SD
Experimental: as §1, §2, §3

[5] = test system: S. epidermidis ATCC 12228; assay: MIC, broth microdilution, standard strain; format: cell-based, Staphylococcus epidermidis; conditions: Staphylococcus epidermidis, ATCC12228, 19 h, 35 °C
S. aureus NCTC 4163 = assay: MIC, broth microdilution, standard strain; format: cell-based, Staphylococcus aureus; conditions: Staphylococcus aureus, NCTC4163, 19 h, 35 °C
S. aureus ATCC 25923 = assay: MIC, broth microdilution, standard strain; format: cell-based, Staphylococcus aureus; conditions: Staphylococcus aureus, ATCC25923, 19 h, 35 °C
[6] = test system: SW620 (human metastatic colon cancer); assay: MTT cytotoxicity assay; format: cell-based; conditions: Homo sapiens, SW-620, 72 h, mean SD
Experimental: as §1
The cell viability was assessed by using of MTT salt [3-(4,5-dimethylthiazol-2-yl)-2,5-diphenyltetrazolium bromide] converted by mitochondrial dehydrogenase, occurring in living cells. […] The untreated cells were used as the control.
as §3, with “Subsequently,” for “After 72 h incubation, the medium was replaced with 200 µL per well of free-serum medium containing 0.5 mg mL^−1 MTT and incubated for 4 h at 37 °C in a CO2 humidified incubator. Subsequently,”

S. pasteuri KR 4358 = assay: MIC, broth microdilution, clinical strain; format: cell-based, Staphylococcus pasteuri; conditions: Staphylococcus pasteuri, KR4358, 19 h, 35 °C
S. aureus T 5595 = assay: MIC, broth microdilution, clinical strain; format: cell-based, Staphylococcus aureus; conditions: Staphylococcus aureus, T5595, 19 h, 35 °C
[7] = test system: S. epidermidis ATCC 35984; assay: MIC, broth microdilution, standard strain; format: cell-based, Staphylococcus epidermidis; conditions: Staphylococcus epidermidis, ATCC35984, 19 h, 35 °C
S. aureus T 5591 = assay: MIC, broth microdilution, clinical strain; format: cell-based, Staphylococcus aureus; conditions: Staphylococcus aureus, T5591, 19 h, 35 °C
P. aeruginosa ATCC 15442 = assay: MIC, broth microdilution, standard strain; format: cell-based, Pseudomonas aeruginosa; conditions: Pseudomonas aeruginosa, ATCC15442, 19 h, 35 °C
S. aureus ATCC 29213 = assay: MIC, broth microdilution, standard strain; format: cell-based, Staphylococcus aureus; conditions: Staphylococcus aureus, ATCC29213, 19 h, 35 °C
S. epidermidis KR 4243 = assay: MIC, broth microdilution, clinical strain; format: cell-based, Staphylococcus epidermidis; conditions: Staphylococcus epidermidis, KR4243, 19 h, 35 °C
P. aeruginosa 659 = assay: MIC, broth microdilution, clinical strain; format: cell-based, Pseudomonas aeruginosa; conditions: Pseudomonas aeruginosa, 659, read-out: MIC P. aeruginosa 659, 19 h, 35 °C
S. aureus ATCC 6538 = assay: MIC, broth microdilution, standard strain; format: cell-based, Staphylococcus aureus; conditions: Staphylococcus aureus, ATCC6538, 19 h, 35 °C
E. coli 600 = assay: MIC, broth microdilution, clinical strain; format: cell-based, Escherichia coli; conditions: Escherichia coli, 600, 19 h, 35 °C
E. coli 510 = assay: MIC, broth microdilution, clinical strain; format: cell-based, Escherichia coli; conditions: Escherichia coli, 510, 19 h, 35 °C
E. coli 520 = assay: MIC, broth microdilution, clinical strain; format: cell-based, Escherichia coli; conditions: Escherichia coli, 520, 19 h, 35 °C

SMILES | MIC (E. coli ATCC 25922) [µg/mL] | IC50 [1] [µM] | IC50 [2] [µM] | IC50 [3] [µM] | IC50 [4] [µM] | MIC [5] [µg/mL] | MIC (S. aureus NCTC 4163) [µg/mL] | MIC (S. aureus ATCC 25923) [µg/mL] | IC50 [6] [µM] | MIC (S. pasteuri KR 4358) [µg/mL] | MIC (S. aureus T 5595) [µg/mL] | MIC [7] [µg/mL] | MIC (S. aureus T 5591) [µg/mL] | MIC (P. aeruginosa ATCC 15442) [µg/mL] | MIC (S. aureus ATCC 29213) [µg/mL] | MIC (S. epidermidis KR 4243) [µg/mL] | MIC (P. aeruginosa 659) [µg/mL] | MIC (S. aureus ATCC 6538) [µg/mL] | MIC (E. coli 600) [µg/mL] | MIC (E. coli 510) [µg/mL] | other results
CC(C)[C@@H]1CC[C@@H](C)C[C@H]1OC(=O)CN1CCN(c2cc3c(cc2F)c(=O)c(C(=O)O)cn3C2CC2)CC1 [Compound 2, 1-cyclopropyl-6-fluoro-7-{4-[2-((1R,2S,5R)-2-isopropyl-5-methylcyclohexyloxy)-2-oxoethyl]piperazin-1-yl}-4-oxo-1,4-dihydroquinoline-3-carboxylic acid] | 8 (≈ 15.2 µM) | 32.3 ± 1.5 | 16.5 ± 0.4 | 25.7 ± 3 | 36 ± 2.9 | 16 (≈ 30.3 µM) | 16 (≈ 30.3 µM) | 16 (≈ 30.3 µM) | 26.7 ± 0.2 | 16 (≈ 30.3 µM) | 16 (≈ 30.3 µM) | 16 (≈ 30.3 µM) | 16 (≈ 30.3 µM) | 128 (≈ 243 µM) | 16 (≈ 30.3 µM) | 16 (≈ 30.3 µM) | 128 (≈ 243 µM) | 16 (≈ 30.3 µM) | 16 (≈ 30.3 µM) | > 256 | MIC (E. coli 520): 16 µg/mL (≈ 30.3 µM)
CC(C)[C@@H]1CC[C@@H](C)C[C@H]1OC(=O)CCCCN1CCN(c2cc3c(cc2F)c(=O)c(C(=O)O)cn3C2CC2)CC1 [Compound 5, 1-cyclopropyl-6-fluoro-7-{4-[5-((1R,2S,5R)-2-isopropyl-5-methylcyclohexyloxy)-5-oxopentyl)piperazin-1-yl)-4-oxo-1,4-dihydroquinoline-3-carboxylic acid] | 16 (≈ 28.1 µM) | 35.3 ± 1.7 | 49.4 ± 4.6 | 43.3 ± 4.4 | 55.4 ± 3.8 | 8 (≈ 14 µM) | 4 (≈ 7.02 µM) | 8 (≈ 14 µM) | 26.5 ± 2.1 | 4 (≈ 7.02 µM) | 4 (≈ 7.02 µM) | 8 (≈ 14 µM) | 2 (≈ 3.51 µM) | 256 (≈ 449 µM) | 4 (≈ 7.02 µM) | 4 (≈ 7.02 µM) | > 256 | 4 (≈ 7.02 µM) | 64 (≈ 112 µM) | > 256 | MIC (E. coli 520): 64 µg/mL (≈ 112 µM)
CC(C)[C@@H]1CC[C@@H](C)C[C@H]1OC(=O)CCN1CCN(c2cc3c(cc2F)c(=O)c(C(=O)O)cn3C2CC2)CC1 [Compound 3, 1-cyclopropyl-6-fluoro-7-{4-[3-((1R,2S,5R)-2-isopropyl-5-methylcyclohexyloxy)-3-oxopropyl]piperazin-1-yl}-4-oxo-1,4-dihydroquinoline-3-carboxylic acid] | 2 to 4 (≈ 3.69 to 7.38 µM) | 27.1 ± 3.1 | 36.8 ± 3.8 | 45.5 ± 5.1 | 30.3 ± 1.2 | 4 (≈ 7.38 µM) | 4 (≈ 7.38 µM) | 4 (≈ 7.38 µM) | 38.6 ± 3.8 | 4 (≈ 7.38 µM) | 4 (≈ 7.38 µM) | 4 (≈ 7.38 µM) | 4 (≈ 7.38 µM) | 32 (≈ 59.1 µM) | 4 (≈ 7.38 µM) | 4 (≈ 7.38 µM) | 64 (≈ 118 µM) | 4 (≈ 7.38 µM) | 4 (≈ 7.38 µM) | 256 (≈ 473 µM) | MIC E. coli ATCC 25922 (E. coli ATCC 25922; 19 h): 4 µg/mL (≈ 7.38 µM); MIC (E. coli 520): 4 µg/mL (≈ 7.38 µM)
